Laboratory results reported in paper PMC2822059 (Nature chemical biology, 2010).

How the values were obtained:
H976Y HDAC4 = conditions: mutant versus wild type; cited from earlier work
[1] = tested on: acetylated histones (AcH3K18), Jurkat cells; assay: Immunoblot for acetylated histones in treated cells; type: cell-based, human; conditions: 24 hours, time- and dose-dependent
[2] = tested on: acetylated alpha-tubulin (AcTub), Jurkat cells; assay: Immunoblot for acetylated alpha-tubulin in treated cells; type: cell-based, human; conditions: 24 hours, time- and dose-dependent

| Structure (SMILES) | increased affinity for H976Y HDAC4 gain of function mutant (H976Y HDAC4) [fold] | hyperacetylation of Class I deacetylase targets (bulk histones) [1] | hyperacetylation of HDAC6 target α-tubulin [2] |
| --- | --- | --- | --- |
| O=C(/C=C/c1ccc(CN(CCO)CCc2c[nH]c3ccccc23)cc1)NO [LAQ-824] | 100 |  |  |
| O=C(/C=C/c1ccc(C(=O)N/N=C/c2ccc(O)c(O)c2O)cc1)NO [pandacostat] |  | confers hyperacetylation | confers hyperacetylation |
